# Measurements reported in ChEMBL document CHEMBL4020762, “Protective effect of lanostane triterpenoids from the sclerotia of Poria cocos Wolf against cisplatin-induced apoptosis in LLC-PK1 cells” (2017).
# Active and inactive are the calls of the source. The rule behind the calls is not given here.
# Experiments:
# [1] = tested on: LLC-PK1; assay: Renoprotective activity in pig LLC-PK1 cells assessed as inhibition of cisplatin-induced damage by measuring increase in cell viability at 10 to 100 uM preincubated for 2 hrs followed by cisplatin addition after 24 hrs by Ez-Cytox reagent based assay; type: functional; conditions: Sus scrofa
# [2] = tested on: LLC-PK1; assay: Renoprotective activity in pig LLC-PK1 cells assessed as inhibition of cisplatin-induced damage by measuring cell viability at 50 to 100 uM preincubated for 2 hrs followed by cisplatin addition after 24 hrs by Ez-Cytox reagent based assay (reference value: 60%); type: functional, Sus scrofa
# [3] = organism: Sus scrofa; assay: Inhibition of cisplatin-induced increase in phosphorylated p38 MAPK levels in pig LLC-PK1 cells at 50 to 100 uM pretreated for 2 hrs followed by cisplatin addition after 24 hrs by radioimmunoprecipitation assay; type: cell-based
# [4] = tested on: LLC-PK1; assay: Renoprotective activity in pig LLC-PK1 cells assessed as inhibition of cisplatin-induced damage by measuring increase in cell viability preincubated for 2 hrs followed by cisplatin addition after 24 hrs by Ez-Cytox reagent based assay; type: functional; conditions: Sus scrofa
# [5] = organism: Sus scrofa; assay: Inhibition of cisplatin-induced increase in phosphorylated ERK levels in pig LLC-PK1 cells at 50 to 100 uM pretreated for 2 hrs followed by cisplatin addition after 24 hrs by radioimmunoprecipitation assay; type: cell-based
# [6] = organism: Sus scrofa; assay: Inhibition of cisplatin-induced increase in phosphorylated JNK levels in pig LLC-PK1 cells at 50 to 100 uM pretreated for 2 hrs followed by cisplatin addition after 24 hrs by radioimmunoprecipitation assay; type: cell-based
# [7] = tested on: LLC-PK1; assay: Renoprotective activity in pig LLC-PK1 cells assessed as inhibition of cisplatin-induced apoptosis by measuring apoptotic cells at 50 to 100 uM preincubated for 2 hrs followed by cisplatin addition after 24 hrs by annexin-V Alexa Fluor488/propidium iodide staining based cytometric method (reference value: 26.3%); type: functional, Sus scrofa
# [8] = tested on: LLC-PK1; assay: Renoprotective activity in pig LLC-PK1 cells assessed as inhibition of cisplatin-induced increase in caspase-3 cleavage at 50 to 100 uM preincubated for 2 hrs followed by cisplatin addition after 24 hrs by radioimmunoprecipitation assay; type: functional, cell-based; conditions: Sus scrofa
# [9] = tested on: A2780; assay: Potentiation of cisplatin-induced cytotoxicity against human A2780 cells up to 100 uM after 24 hrs in presence of cisplatin by Ez-Cytox reagent based assay; type: functional, cell-based
# [10] = tested on: A2780; assay: Potentiation of cisplatin-induced cytotoxicity against human A2780 cells after 24 hrs in presence of cisplatin by Ez-Cytox reagent based assay; type: functional, cell-based
Compound,inhibition [1],inhibition (INH) [2],inhibition [3],inhibition [4],inhibition [5],inhibition [6],inhibition (INH) [7] [%],inhibition [8],Activity [9],Activity [10]
O=c1c(O)c(-c2ccc(O)c(O)c2)oc2cc(O)cc(O)c12,Active,,,,,,,,,
C=C(CC[C@@H](C(=O)O)[C@H]1CC[C@@]2(C)C3=CC[C@H]4C(C)(C)[C@@H](OC(C)=O)CC[C@]4(C)C3=CC[C@]12C)C(C)C,,<=80%,Active,Dose-dependent effect,Active,Active,4.3,Active,Active,
CC(=O)O[C@H]1CC[C@]2(C)C3=CC[C@]4(C)[C@@H]([C@@H](CCC=C(C)C)C(=O)O)CC[C@@]4(C)C3=CC[C@H]2C1(C)C,,,,Dose-dependent effect,,,,,,inactive
